Experiments:
[1] = tested on: CEM cells; test: Retention of araCTP and T-araCTP in CEM cells (FIG. 2); type: cell-based; details: CEM cells, 1 hour with 5 nM [5-3H]araC
Protocol: […]. Samples were collected at various times after the cells were resuspended in fresh medium, and the amount of radioactivity in the 5′-triphosphate peak was determined using SAX HPLC. In this experiment there was 0.639 pmoles araCTP/10^6 cells and 0.246 pmoles of T-araCTP after the 1 hour incubation with radiolabeled compound.

[2] = tested on: CEM cells; test: Initial half-life of triphosphates in CEM cells; type: cell-based; details: CEM cells after 1 hour with 100 nM radiolabeled nucleoside, then fresh medium; 5′-triphosphate peak
Protocol: Samples were collected at various times after the cells were resuspended in fresh medium, and the amount of radioactivity in the 5'-triphosphate peak was determined using SAX HPLC. The data presented are the mean and standard deviation from 3 separate experiments.

[3] = tested on: protein synthesis in CEM cells; test: Effect on protein synthesis ([3H]leucine incorporation) in CEM cells; type: cell-based; details: 150 nM, average of two experiments
Protocol: (§1) Radiolabeled precursors of DNA [^3H]dThd, RNA ([^3H]Urd), or protein ([^3H]leucine) were added to each treatment 30 minutes after the addition of each compound. Samples were taken 1, 2, 3 and 4 hours after the addition of radiolabeled precursors, and the incorporation of radioactivity into RNA, DNA, or protein were determined as described (Parker et al, Biochem. Pharmacol. 55: 1673-1681, 1998). Each number represents the average of two experiments.

[4] = tested on: SK-MEL 28 Melanoma; test: In vitro IC50, 72 hour exposure, SRB assay; type: cell-based; details: read-out: IC50 Molar Values
Protocol: (§2) EXAMPLE 3 The following in vitro tests were carried out.
(§3) The above tests were carried out with a 72 hour exposure to the compound using Natural Red assay for all cell lines except SK-MEL 28 which was done with SRB assay.

[5] = Phosphorylation in cell-free CEM extracts, wild-type; type: biochemical; details: wild-type CEM cell extract; 1 μm substrate
Protocol: (§4) The number in parentheses is the number of experiments performed. […] At various times after the initiation of the experiment, an aliquot of each reaction volume was removed and placed on DE-81 filters. The filters were washed with 1 mM ammonium formate and ethanol, and the amount of radioactivity on each filter was determined. […] This assay was verified by HPLC.

[6] = tested on: CEM cells (wild-type); test: Inhibition of CEM cell growth, wild-type; details: read-out: IC50 (nM) Wild-type; wild-type CEM cells; cell numbers by Coulter Counter; mean and standard deviation from 3 experiments
Protocol: (§7) CEM cells were incubated with various concentrations of each compound and the effect on. cell numbers was determined using a Coulter Counter. The IC50 was determined from a plot of the percent of control growth versus drug concentration. The data presented are the mean and standard deviation from 3 separate experiments.

[7] = tested on: CEM cells; test: Effect of F-dUrd on metabolism (deamination) in CEM cells; type: cell-based; details: 100 nM
Protocol: The complete metabolism of each compound was determined as described in the legend to Table 12, and the percent of deaminated metabolites for each compound was determined.

[8] = tested on: DNA synthesis in CEM cells; test: Effect on DNA synthesis ([3H]dThd incorporation) in CEM cells; type: cell-based; details: 150 nM, average of two experiments
Protocol: as §1

[9] = tested on: araC-resistant CEM cells; test: Inhibition of CEM cell growth, araC-resistant; details: read-out: IC50 (nM) araC-resistant; araC-resistant CEM cells; cell numbers by Coulter Counter; mean and standard deviation from 3 experiments
Protocol: as §7

[10] = tested on: RNA synthesis in CEM cells; test: Effect on RNA synthesis ([3H]Urd incorporation) in CEM cells; type: cell-based; details: 150 nM, average of two experiments
Protocol: as §1

[11] = tested on: SC CAKI-1 Renal Tumor; test: Response of SC CAKI-1 Renal Tumor to Treatment; type: in vivo; details: Q 4H × 3 day 7-15
Protocol: (§5) The following in vivo tests were carried out to illustrate the effectiveness of the compounds of the present invention.

[12] = tested on: CEM cells; test: Complete metabolism of dCyd, T-dCyd, araC and T-araC in CEM cells; type: cell-based; details: 100 nM, incubation 1 hour
Protocol: The complete metabolism of each compound was determined: The medium was analyzed for the original compound, its deaminated form using reverse phase HPLC, and H20; the acid-soluble extract was analyzed by SAX HPLC for phosphorylated metabolites; and the incorporation of radioactivity into acid-precipitable material (DNA) was determined.

[13] = tested on: SC HCT-116 Colon Tumor; test: Response of SC HCT-116 Colon Tumor to Treatment; type: in vivo; details: Q 4H × 3 day 6-14
Protocol: as §5

[14] = tested on: PC-3 Prostate; test: In vitro IC50, 72 hour exposure, Natural Red assay; type: cell-based; details: read-out: IC50 Molar Values
Protocol: as §2, §3

[15] = tested on: CAK1-1 Renal; test: In vitro IC50, 72 hour exposure, Natural Red assay; type: cell-based; details: read-out: IC50 Molar Values
Protocol: as §2, §3

[16] = tested on: SNB-7 (CNS); test: In vitro IC50, 72 hour exposure, Natural Red assay; type: cell-based; details: read-out: IC50 Molar Values
Protocol: as §2, §3

[17] = tested on: LOX IMV1 Melanoma; test: In vitro IC50, 72 hour exposure, Natural Red assay; type: cell-based; details: read-out: IC50 Molar Values
Protocol: as §2, §3

[18] = tested on: ZR-75-1 Mammary; test: In vitro IC50, 72 hour exposure, Natural Red assay; type: cell-based; details: read-out: IC50 Molar Values
Protocol: as §2, §3

[19] = tested on: NC1-H23 Lung; test: In vitro IC50, 72 hour exposure, Natural Red assay; type: cell-based; details: read-out: IC50 Molar Values
Protocol: as §2, §3

[20] = tested on: DLD-1 Colon; test: In vitro IC50, 72 hour exposure, Natural Red assay; type: cell-based; details: read-out: IC50 Molar Values
Protocol: as §2, §3

[21] = Phosphorylation in cell-free CEM extracts, araC-resistant; type: biochemical; details: for Percent of wild-type: phosphorylation in araC-resistant vs wild-type CEM extract
Protocol: as §4

[22] = tested on: CEM cells (wild-type); test: Metabolism of dCyd and analogs in wild-type CEM cells; type: cell-based; details: WT CEM cells; 100 nM; incubation time 0.25 hours
Protocol: (§6) The radioactivity in the 5′-triphosphate peak and the incorporation of radioactivity in the acid-insoluble fraction (DNA) was determined.

[23] = tested on: araC-resistant CEM cells; test: Metabolism of dCyd and analogs in araC-resistant CEM cells; type: cell-based; details: 100 nM, incubation time 0.25 hours
Protocol: as §6

Nc1ccn([C@@H]2O[C@H](COP(=O)(O)OP(=O)(O)OP(=O)(O)O)[C@@H](O)[C@@H]2O)c(=O)n1 [araCTP]
araCTP after the 1 hour incubation [1]: 0.639 pmoles/10^6 cells
Initial Half-Life, Hours (SD) [2]: 5.31 ± 0.31 h

Nc1ccn([C@@H]2O[C@H](CO)[C@@H](O)[C@@H]2O)c(=O)n1 [araC, cytosine arabinoside]
protein synthesis, Percent of control [3]: 96% of control
IC50 [4]: 2000 nM
Phosphorylation, Wild-type [5]: 94 pmoles/mg protein/minute
IC50 [6]: 6 ± 3 nM
Percent Deamination ([7]; F-dUrd 0 μM, incubation time 8 hours): 0%
Percent Deamination ([7]; F-dUrd 10 μM, incubation time 8 hours): 10%
DNA synthesis, Percent of control [8]: 8% of control
IC50 [9]: 800 ± 400 nM
RNA synthesis, Percent of control [10]: 96% of control
Days Delay (T − C) ([11]; 13.3 Mg/Kg IP): 11.0 days
Days to 3 Doubling ([11]; 13.3 Mg/Kg IP): 20.5 days
Non-Specific Deaths/Total ([11]; 13.3 Mg/Kg IP): 0/6
Tumor Free Surv/Total ([11]; 13.3 Mg/Kg IP): 0/6
Tumor Regression Number of Complete ([11]; 13.3 Mg/Kg IP): 0
Tumor Regression Number of Partial ([11]; 13.3 Mg/Kg IP): 0
Days Delay (T − C) ([11]; 20 Mg/Kg IP): 6.2 days
Days to 3 Doubling ([11]; 20 Mg/Kg IP): 15.7 days
Non-Specific Deaths/Total ([11]; 20 Mg/Kg IP): 5/6
Toxicity remark under Days Delay (T − C) ([11]; 20 Mg/Kg IP): (Toxic)
Tumor Free Surv/Total ([11]; 20 Mg/Kg IP): 0/6
Tumor Regression Number of Complete ([11]; 20 Mg/Kg IP): 0
Tumor Regression Number of Partial ([11]; 20 Mg/Kg IP): 0
Days Delay (T − C) ([11]; 30 Mg/Kg IP): 16.2 days
Days to 3 Doubling ([11]; 30 Mg/Kg IP): 25.7 days
Non-Specific Deaths/Total ([11]; 30 Mg/Kg IP): 5/6
Toxicity remark under Days Delay (T − C) ([11]; 30 Mg/Kg IP): (Toxic)
Tumor Free Surv/Total ([11]; 30 Mg/Kg IP): 0/6
Tumor Regression Number of Complete ([11]; 30 Mg/Kg IP): 0
Tumor Regression Number of Partial ([11]; 30 Mg/Kg IP): 0
DNA (percent of total) [12]: 0.4% of total
Deaminated Compound (percent of total) [12]: 0% of total
H20 (percent of total) [12]: 0% of total
Original Compound (percent of total) [12]: 87% of total
nucleoside-TP (percent of total) [12]: 13% of total
Days Delay (T − C) ([13]; 9 Mg/Kg IP): 2.0 days
Days to 2 Doubling ([13]; 9 Mg/Kg IP): 10.9 days
Non-Specific Deaths/Total ([13]; 9 Mg/Kg IP): 0/6
Tumor Free Surv/Total ([13]; 9 Mg/Kg IP): 0/6
Tumor Regression Number of Complete ([13]; 9 Mg/Kg IP): 0
Tumor Regression Number of Partial ([13]; 9 Mg/Kg IP): 0
Days Delay (T − C) ([13]; 13.3 Mg/Kg IP): 3.3 days
Days to 2 Doubling ([13]; 13.3 Mg/Kg IP): 12.2 days
Non-Specific Deaths/Total ([13]; 13.3 Mg/Kg IP): 0/6
Tumor Free Surv/Total ([13]; 13.3 Mg/Kg IP): 0/6
Tumor Regression Number of Complete ([13]; 13.3 Mg/Kg IP): 0
Tumor Regression Number of Partial ([13]; 13.3 Mg/Kg IP): 0
IC50 [14]: 5000 nM
IC50 [15]: 600 nM
IC50 [16]: 200 nM
IC50 [17]: 1000 nM
IC50 [18]: 400 nM
IC50 [19]: 300 nM
IC50 [20]: 5000 nM
Phosphorylation, araC-resistant CEM cells ([21]; araC-resistant CEM cell extract, 1 μm substrate): 1.2 pmoles/mg protein/minute
Percent of wild-type [21]: 1.3% of wild-type

Nc1ccn(C2CC(O)C(COP(=O)(O)OP(=O)(O)OP(=O)(O)O)S2)c(=O)n1 (stereo not shown) [T-dCTP]
Initial Half-Life, Hours (SD) [2]: 1.10 ± 0.35 h

Nc1ccn([C@H]2C[C@H](O)[C@@H](CO)O2)c(=O)n1 [dCyd, 2′-deoxycytidine]
Phosphorylation, Wild-type [5]: 240 ± 33 pmoles/mg protein/minute
DNA [22]: 1.19 pmoles/10^6 cells
Total [22]: 3.46 pmoles/10^6 cells
Percent Deamination ([7]; F-dUrd 0 μM, incubation time 1 hour): 32%
Percent Deamination ([7]; F-dUrd 10 μM, incubation time 1 hour): 22%
DNA [23]: 0.011 pmoles/10^6 cells
DNA (percent of WT) [23]: 0.89% of WT
Total [23]: 0.032 pmoles/10^6 cells
Total (percent of WT) [23]: 0.91% of WT
DNA (percent of total) [12]: 3% of total
Original Compound (percent of total) [12]: 38% of total
Percent of wild-type [21]: 1.5% of wild-type

— patent US20060287320A1, “Preparation of thioarabinofuranosyl compounds and use thereof” (Southern Research Institute, priority 1998, published 2006)
